Results published in patent publication US20230084927A1, “GLUCOSE UPTAKE INHIBITORS AND USES THEREOF” (METABOMED LTD., priority 2019, published 2023).
Like-named read-outs stand apart in the source and are kept apart here.

Key:
[1] = test system: SDH-KO-HRAS cells (SDHB-deficient); assay: Cellular / differential toxicity assay (CellTiter-Glo, 3 days); format: cell-based, murine; details: toxicity, SDH-KO cells, 3 days, CellTiter-Glo, read-out: EC50 (uM) SDH-KO-HTAS-C17
Protocol: (§1) Identification of compounds that target specifically SDH-deficient cells was done by screening a library of small-molecule by using a differential toxicity screen with SDHB-proficient vs. SDHB-deficient cells (the […] cells were described in Cardaci 2015).
(§2) Cells Used for the Differential Assays: SDH-WT; SDH-KO-HRAS
(§3) Cell Culture Conditions: • Medium: DMEM-F12 medium+1 mM Glutamine+3% FBS • Plates: 96 well plate—Black, clear flat bottom • Incubation time: 3 days • Compound concentration: 10 point dilution starting from 10 uM to 0.0065 uM or a lower range when needed. • Viability assay at the end of incubation: Celltiter-Glo (CTG) from Promega.
(§4) Protocol: • Day 1: Plate cells in 96 well plate together with the appropriate concentration of compound.
(§5) Incubate for 3 days at 37° C. in 5% CO2 tissue culture incubator. • Day 4: Check viability of cells by adding CTG reagent and read luminescence in plate reader
(§6) SDH-WT and SDH-KO cells were grown in DMEM F12 supplemented with 1 mM Glutamine+3% FBS were treated with different concentrations of the indicated compounds in FIG. 11. Cell viability was determined 72 hours later by CellTiter Glue reagent (Promega), the luminescence was measured with ClarioStar reader (BMG) and the EC50s were calculated by Prism.
as §6, with “compounds.” for “compounds in FIG. 11.”
(§7) The cells were grown in DMEM F12 supplemented with 1 mM Glutamine+3% FBS were treated with different concentrations of the indicated compounds. Cell viability was determined 72 hours later by CellTiter Glue reagent (Promega), the luminescence was measured with ClarioStar reader (BMG) and the EC50s were calculated by Prism. Murine SDHB-WT/KO, HRAS transformed isogenic pair (FIG. 12A); UOK269, Human Tumor-derived SDHB-deficient RCC in their WT counterpart with re-expression of SDHB (FIG. 12B); and ACHN, RCC cells, and their SDHB-KO (SDHB CRISPRed out) isogenic cells (FIG. 12C).

[2] = test system: SDH-WT cells; assay: as above; format: cell-based, murine; details: toxicity, SDH-WT cells, 3 days, CellTiter-Glo, read-out: EC50 (uM) SDH-WT
Protocol: as §1, §2, §3, §4, §5, §6
as §6, with “compounds.” for “compounds in FIG. 11.”
as §7

| Structure (SMILES) | EC50 ([1]; Mus musculus, 72 h) [µM] | EC50 ([2]; Mus musculus, 72 h) [µM] | EC50 [1] [µM] | EC50 [2] [µM] |
| --- | --- | --- | --- | --- |
| CC(=O)OCC(=O)Cc1ccc(CCNc2ncnc3c2sc2nc4c(cc23)COC(C)(C)C4)cc1N [Compound 183] | < 1 | 3 to 10 | – | – |
| CC(=O)OCC(=O)Cc1ccc(CCNc2ncnc3c2sc2nc4c(cc23)COC(C)(C)C4)cc1[N+](=O)[O-] [Compound 184] | 3 to 10 | 3 to 10 | – | – |
| CC(=O)OC(C)c1nc2cc(CCNc3ncnc4c3sc3nc5c(cc34)COC(C)(C)C5)ccc2[nH]1 (stereo not drawn) [Compound 185] | 1 to 3 | 3 to 10 | – | – |
| CC(=O)OC(C)C(=O)Nc1ccc(CCNc2ncnc3c2sc2nc4c(cc23)COC(C)(C)C4)cc1N (stereo not drawn) [Compound 186] | 1 to 3 | 3 to 10 | – | – |
| CC(=O)OC(C)C(=O)Nc1ccc(CCNc2ncnc3c2sc2nc4c(cc23)COC(C)(C)C4)cc1[N+](=O)[O-] (stereo not drawn) [Compound 187] | 3 to 10 | 1 to 3 | – | – |
| CC(C)c1nc2cc(CCNc3ncnc4c3sc3nc5c(cc34)COC(C)(C)C5)ccc2[nH]1 [Compound 188] | 3 to 10 | 1 to 3 | – | – |
| CC1(C)Cc2nc3sc4c(NCCc5ccc6[nH]c(N)nc6c5)ncnc4c3cc2CO1 [Compound 189] | < 1 | 1 to 3 | – | – |
| CC1(C)Cc2nc3sc4c(NCCc5ccc6[nH]c(-c7ccccc7)nc6c5)ncnc4c3cc2CO1 [Compound 190] | 1 to 3 | < 1 | – | – |
| CC(=O)CNc1ccc(CCNc2ncnc3c2sc2nc4c(cc23)COC(C)(C)C4)cc1F [Compound 191] | 1 to 3 | 3 to 10 | – | – |
| CC1(C)Cc2nc3sc4c(NCCc5ccc(NCc6ccccc6)c(N)c5)ncnc4c3cc2CO1 [Compound 192] | < 1 | < 1 | – | – |
| CC1(C)Cc2nc3sc4c(NCCc5ccc(N)c(N)c5)ncnc4c3cc2CO1 [Compound 193] | < 1 | 1 to 3 | – | – |
| Cc1nc2cc(CCNc3ncnc4c3sc3nc5c(cc34)COC(C)(C)C5)ccc2[nH]1 [Compound 194] | < 1 | < 1 | – | – |
| COc1nc2cc(CCNc3ncnc4c3sc3nc5c(cc34)COC(C)(C)C5)ccc2[nH]1 [Compound 195] | < 1 | < 1 | – | – |
| CC1(C)Cc2nc3sc4c(NCCc5ccc6[nH]c(=O)[nH]c6c5)ncnc4c3cc2CO1 [Compound 196] | < 1 | 3 to 10 | – | – |
| CC1(C)Cc2nc3sc4c(NCCc5ccc(NC(=O)c6ccccc6)c([N+](=O)[O-])c5)ncnc4c3cc2CO1 [Compound 197] | 1 to 3 | 3 to 10 | – | – |
| CC(=O)CN(C(=O)C(F)(F)F)c1ccc(CCNc2ncnc3c2sc2nc4c(cc23)COC(C)(C)C4)cc1F [Compound 198] | < 1 | 3 to 10 | – | – |
| CC(C)C(=O)Nc1ccc(CCNc2ncnc3c2sc2nc4c(cc23)COC(C)(C)C4)cc1[N+](=O)[O-] [Compound 199] | 1 to 3 | 1 to 3 | – | – |
| CC1(C)Cc2nc3sc4c(NCCc5ccc(NC(=O)C(F)(F)F)c(F)c5)ncnc4c3cc2CO1 [Compound 200] | 1 to 3 | 3 to 10 | – | – |
| CC1(C)Cc2nc3sc4c(NCCc5ccc6[nH]nnc6c5)ncnc4c3cc2CO1 [Compound 201] | < 1 | 1 to 3 | – | – |
| CC1(C)Cc2nc3sc4c(NCCc5ccc6occc6c5)ncnc4c3cc2CO1 [Compound 202] | < 1 | 3 to 10 | – | – |
| CC1(C)Cc2nc3sc4c(NCCc5ccc(N)c(F)c5)ncnc4c3cc2CO1 [Compound 203] | < 1 | > 10 | – | – |
| CC(=O)Nc1ccc(CCNc2ncnc3c2sc2nc4c(cc23)COC(C)(C)C4)cc1F [Compound 204] | 1 to 3 | > 10 | – | – |
| CC1(C)Cc2nc3sc4c(NCCc5ccc(N)c([N+](=O)[O-])c5)ncnc4c3cc2CO1 [Compound 205] | < 1 | 3 to 10 | – | – |
| CC1(C)Cc2nc3sc4c(NCCc5ccc6[nH]cnc6c5)ncnc4c3c(-c3ccccc3)c2CO1 [Compound 206] | < 1 | < 1 | – | – |
| COc1ccc(CCNC(=O)c2sc3nc4c(cc3c2NC(=O)C(F)(F)F)COC(C)(C)C4)cc1F [Compound 207] | 3 to 10 | 1 to 3 | – | – |
| COc1ccc(CCNC(=O)c2sc3nc4c(cc3c2N)COC(C)(C)C4)cc1F [Compound 208] | > 10 | > 10 | – | – |
| COc1ccc(CCNc2ncnc3c2sc2nc4c(cc23)CC(C(=O)O)CC4)cc1F (stereo not drawn) [Compound 209] | > 10 | > 10 | – | – |

| Structure (SMILES) | EC50 ([1]; Mus musculus, 72 h) [µM] | EC50 ([2]; Mus musculus, 72 h) [µM] | EC50 [1] [µM] | EC50 [2] [µM] |
| --- | --- | --- | --- | --- |
| CC1(C)Cc2nc3sc4c(NCCc5ccc6[nH]cnc6c5)ncnc4c3c(C(=O)OCCCCCCCC(=O)O)c2CO1 [Compound 210] | 3 to 10 | < 1 | – | – |
| CC1(C)Cc2nc3sc4c(NCCc5ccc6[nH]cnc6c5)ncnc4c3c(C(=O)OCCCCCCCCCCCCCCCC(=O)O)c2CO1 [Compound 211] | 3 to 10 | 3 to 10 | – | – |
| CC1(C)Cc2nc3sc4c(NCCc5ccc6[nH]cnc6c5)ncnc4c3c(C(=O)OCCCCCCCCCCCC(=O)O)c2CO1 [Compound 212] | 3 to 10 | 3 to 10 | – | – |
| COCOCCOCCOCCOCc1c2c(nc3sc4c(NCCc5ccc6[nH]cnc6c5)ncnc4c13)CC(C)(C)OC2 [Compound 213] | 1 to 3 | > 10 | – | – |
| COCCOCCOCCOCCOCCOCc1c2c(nc3sc4c(NCCc5ccc6[nH]cnc6c5)ncnc4c13)CC(C)(C)OC2 [Compound 214] | 1 to 3 | > 10 | – | – |
| CCCCCCNc1nc(C)nc2c1sc1nc3c(cc12)COC(C)(C)C3 [Compound 215] | > 10 | > 10 | – | – |
| CCCCCCNc1ncnc2c1sc1nc3c(cc12)COC(C)(C)C3 [Compound 216] | > 10 | > 10 | – | – |
| CCCCNc1ncnc2c1sc1nc3c(cc12)COC(C)(C)C3 [Compound 217] | – | – | 1 to 3 | 3 to 10 |
| CCN(CC)CCNc1ncnc2c1sc1nc3c(cc12)COC(C)(C)C3 [Compound 218] | > 10 | > 10 | – | – |
| CCC(C)Nc1nc(C)nc2c1sc1nc3c(cc12)COC(C)(C)C3 (stereo not drawn) [Compound 219] | 3 to 10 | > 10 | – | – |
| Cc1nc(NCC(C)C)c2sc3nc4c(cc3c2n1)COC(C)(C)C4 [Compound 220] | > 10 | > 10 | – | – |
| C=CCNc1ncnc2c1sc1nc3c(cc12)COC(C)(C)C3 [Compound 221] | – | > 10 | > 10 | – |
| Cc1nc(NCCCO)c2sc3nc4c(cc3c2n1)COC(C)(C)C4 [Compound 222] | > 10 | > 10 | – | – |
| Cc1nc(N2CCOCC2)c2sc3nc4c(cc3c2n1)COC(C)(C)C4 [Compound 223] | > 10 | > 10 | – | – |
| CC(C)CNc1ncnc2c1sc1nc3c(cc12)COC(C)(C)C3 [Compound 224] | > 10 | > 10 | – | – |
| Cc1nc(NCCN(C)C)c2sc3nc4c(cc3c2n1)COC(C)(C)C4 [Compound 225] | > 10 | > 10 | – | – |
| Cc1nc(NCCCN(C)C)c2sc3nc4c(cc3c2n1)COC(C)(C)C4 [Compound 226] | > 10 | > 10 | – | – |
| CN(C)CCNc1ncnc2c1sc1nc3c(cc12)COC(C)(C)C3 [Compound 227] | > 10 | > 10 | – | – |
| CN(C)CCCNc1ncnc2c1sc1nc3c(cc12)COC(C)(C)C3 [Compound 228] | > 10 | > 10 | – | – |
| CCCCNc1nc(C)nc2c1sc1nc3c(cc12)COC(C)(C)C3 [Compound 229] | 3 to 10 | > 10 | – | – |
| Cc1nc(NCCN2CCOCC2)c2sc3nc4c(cc3c2n1)COC(C)(C)C4 [Compound 230] | > 10 | > 10 | – | – |
| Cc1nc(NCC2CCCO2)c2sc3nc4c(cc3c2n1)COC(C)(C)C4 (stereo not drawn) [Compound 231] | > 10 | > 10 | – | – |
| CC1(C)Cc2nc3sc4c(NCc5ccco5)ncnc4c3cc2CO1 [Compound 232] | > 10 | > 10 | – | – |
| Cc1nc(N2CCCCC2)c2sc3nc4c(cc3c2n1)COC(C)(C)C4 [Compound 233] | > 10 | > 10 | – | – |
| CCN(CC)CCNc1nc(C)nc2c1sc1nc3c(cc12)COC(C)(C)C3 [Compound 234] | > 10 | > 10 | – | – |
| Cc1nc(NCc2ccc(OC(C)C)cc2)c2sc3nc4c(cc3c2n1)COC(C)(C)C4 [Compound 235] | > 10 | > 10 | – | – |
| CC1CCC(C)N(c2ncnc3c2sc2nc4c(cc23)COC(C)(C)C4)C1 (stereo not drawn) [Compound 236] | > 10 | > 10 | – | – |
